Experimental data reported in patent publication US9309336B2, “Synthesis and antiscalant behavior of a novel polyzwitterionic acid” (King Fahd University of Petroleum and Minerals, priority 2013, dated 2016).
Several values for one entry are separate records, joined by “and”; a condition that tells them apart may be missing. Identical values can stand only once.

How the values were obtained:
[1] = Solubility of monomer 4 (observation at isolation); type: physicochemical
Procedure: Synthesis of 3-[Diallyl{3-(diethoxyphosphoryl)propyl}ammonio]propane-1-sulfonate (4) preferably occurs by the following method: under N2 at 70° C., a solution of diethyl 3-(diallylamino)propylphosphonate 2 (15.0 g, 54.5 mmol) and 3 (7.0 g, 57.3 mmol) in CH3CN (30 cm^3) was stirred for 60 h. The residue, after removal of acetonitrile, was crystallized from acetone (30 cm^3) in the presence of small amount of methanol to give white crystals of 4 (19.5 g, 90%). The extremely hygroscopic monomer is insoluble in acetone but soluble in methanol or water. Mp 140-142° C. (closed capillary); (Found: C, 47.9; H, 8.4; N, 3.4; S, 7.8%. C16H32NO6PS requires C, 48.35; H, 8.11; N, 3.52; S, 8.07%); νmax (KBr): 3402, 2985, 2940, 1644, 1479, 1428, 1394, 1213, 1042, 967, 875, 786, 733 and 605 cm^−1; δH (D2O) 1.22 (6H, t, J=7 Hz), 1.86 (2H, m), 1.96 (2H, m), 2.11 (2H, m), 2.84 (2H, t, J=7.5 Hz), 3.23 (2H, apparent t, J=10 Hz), 3.31 (2H, apparent t, J=10 Hz), 3.85 (4H, d, J=7 Hz), 4.04 (4H, m), 5.64 (4H, m), 5.89 (2H, m), (HOD: 4.65); δC (D2O) 15.83 (s, PCH2CH2), 16.47 (d, 2C, Me, ^3J (PC) 4.1 Hz), 18.29 (s, SCH2CH2), 21.45 (d, PCH2, ^1J (PC) 143 Hz), 47.97 (s, SCH2CH2CH2), 57.26 (s, SCH2CH2CH2), 58.32 (d, PCH2CH2CH2, ^3J (PC) 16.4 Hz), 61.72 (2C, ═CH—CH2, s), 64.38 (d, 2C, OCH2CH3, ^2J (PC) 6.2 Hz), 124.40 (2C, s, CH2=CH), 129.80 (2C, s, CH2═CH) (dioxane: 67.40 ppm); δP (202 MHz, D2O): 31.01 (s). DEPT 135 NMR analysis was carried out to assign the ^13C signals.

[2] = Potentiometric titration for protonation (basicity) constants; type: physicochemical; conditions: 23° C.; for Log K1^o (first protonation), Average / Log K2^o (second protonation), Average / n1 (first protonation), Average / n2 (second protonation), Average: average of runs 1-3, SD in last digit in parentheses
Procedure: Protonation constants (K1 and K2) of polymer 8 [ZH2^±=] and its corresponding monomer unit 11 [ZH2^±=] were determined by potentiometric titrations which were carried out in atmosphere of N2 in CO2-free water as described elsewhere using a solution (Tables 3 and 4) of PZDA 6 [ZH2^±] or monomer form 11 [ZH2^±=] in 200 cm^3 of salt-free water or 0.1 N NaCl (S. A. Ali, et al., J. Polym. Sc. A: Polym. Chem. 2010, 48, 5693-5703—incorporated herein by reference in its entirety). The Log K1 and Log K2 of the —P(═O)O^= (in 8 or 11) are calculated at each pH value by the Henderson-Hasselbalch eq 2 (Scheme 1) where a is the ratio [ZH^±−]eq/[Z]o and [ZH2^±]eq/[Z]o, respectively. The [ZH^±−]eq and [ZH2^±]eq represent the respective equilibrium concentrations of the first and second protonated species whereas [Z]o describes the initial concentration of repeating units.
For the determination of the second step protonation constant (log K2) of —P(═O)(OH)O^− (i.e. [ZH^±−]) using the titration of polymer 6 [ZH2^±] with NaOH, [Z]o and [ZH2^±]eq are related by [ZH2^±]eq=[Z]o−COH^−−[H^+]+[OH^−], where COH^− represent the added NaOH concentration. The equilibrium [H^+] and [OH^−] values were calculated from the pH value (W. K. Felty, J. Chem. Educ. 1978, 55, 576; R. Barbucci, et al., Macromolecules 1981, 14, 1203-1209—each incorporated herein by reference in its entirety). The first step protonation constant (log K1) involving the protonation of —P(═O)(O^−)2 (i.e. [Z^±=]) using volume of the titrant after deducting the equivalent volume from the total volume. In this case, α represents the ratio [ZH^±−]eq/[Z]o whereby [ZH^±−]eq equals [Z]o−COH^−−[H^+]+[OH^−]. For the titration of 11 [Z^±=] with HCl, the protonated species' concentration is given by: [ZHi=1,2]eq═CH^+−[H^+]+[OH^−].
Eq. 3 (Scheme 1) describes the apparent basicity constants of —P(═O)(O^−)2 where log K^o=pH at α=0.5 and n=1 in the case of sharp basicity constants.
The ‘n’ and log K^o as the respective slope and intercept were determined from the linear regression fit of pH vs. log [(1−α)/α)]. Protonation at the same time of the three basic sites: —PO3^=(log K1≈+8), —PO3H^− (log K2≈+3) and —SO3^−(log K3≈−2.1) (J. P. Guthrie, Can. J. Chem. 1978, 56, 2342-2354—incorporated herein by reference in its entirety) is not likely due to differences of their basicity constants by about 5 orders of magnitude (vide infra). Note that basicity constant log K of any base B is the pKa of its conjugate acid BH^+.

[3] = 0.1M NaCl, single runs (polymer runs 1, 2 in the presence of 1.5 mL of 0.1222M HCl)

Structure (SMILES)	solubility ([1]; acetone)	solubility ([1]; methanol)	solubility ([1]; water)	Log K1^o (first protonation), Average ([2]; 0.1M NaCl)	Log K2^o (second protonation), Average ([2]; 0.1M NaCl)	n1 (first protonation), Average ([2]; 0.1M NaCl)	n2 (second protonation), Average ([2]; 0.1M NaCl)	Log K1^o (first protonation) ([2]; 0.1M NaCl, single runs)	n1 (first protonation) ([2]; 0.1M NaCl, single runs)	Log K2^o (second protonation) [2, 3]	n2 (second protonation) [2, 3]	Log K1^o (first protonation), Average ([2]; Salt-Free water)	Log K2^o (second protonation), Average ([2]; Salt-Free water)	n1 (first protonation), Average ([2]; Salt-Free water)	n2 (second protonation), Average ([2]; Salt-Free water)	Log K1^o (first protonation) ([2]; Salt-Free water, single runs)	Log K2^o (second protonation) ([2]; Salt-Free water, single runs)	n1 (first protonation) ([2]; Salt-Free water, single runs)	n2 (second protonation) ([2]; Salt-Free water, single runs)
C=CC[N+](CC=C)(CCCP(=O)(OCC)OCC)CCCS(=O)(=O)[O-] [Monomer 4, 3-[diallyl{3-(diethoxyphosphoryl)propyl}ammonio]propane-1-sulfonate]	insoluble	soluble	soluble	–	–	–	–	–	–	–	–	–	–	–	–	–	–	–	–
C=CC[N+](CC=C)(CCCP(=O)([O-])[O-])CCCS(=O)(=O)[O-].[Na+].[Na+] [Monomer 11]	–	–	–	7.12 (1)	2.90 (5)	1.03 (1)	1.01 (4)	7.12 and 7.11 and 7.13	1.03 and 1.04	2.91 and 2.84 and 2.94	0.993 and 1.06 and 0.990	7.53	2.74 (2)	1.04 (1)	1.02 (3)	7.50 and 7.54 and 7.55	2.75 and 2.72	1.04 and 1.05	1.02 and 0.984 and 1.05
